Measurements taken from the kinase profiling compilation of Christmann-Franck et al. (2016).

Columns and labels:
[1] = biological target: PRKCB1 (human) (UniProt P05771); test: SelectScreen, TR FRET; conditions: compound 10.0 µM
[2] = biological target: ERBB4 (human) (UniProt Q15303); test: SelectScreen, TR FRET; conditions: compound 10.0 µM
[3] = biological target: MAPK1 (human) (UniProt P28482); test: SelectScreen, TR FRET; conditions: compound 10.0 µM
[4] = biological target: AKT1 (human) (UniProt P31749); test: SelectScreen, TR FRET; conditions: compound 10.0 µM
[5] = biological target: CDK1 CCNB1 (human) (UniProt P06493+P14635); test: SelectScreen, TR FRET; conditions: compound 10.0 µM
[6] = biological target: INSR (human) (UniProt P06213); test: SelectScreen, TR FRET; conditions: compound 10.0 µM
Sequence of INSR (human) (P06213 whole entry, looked up): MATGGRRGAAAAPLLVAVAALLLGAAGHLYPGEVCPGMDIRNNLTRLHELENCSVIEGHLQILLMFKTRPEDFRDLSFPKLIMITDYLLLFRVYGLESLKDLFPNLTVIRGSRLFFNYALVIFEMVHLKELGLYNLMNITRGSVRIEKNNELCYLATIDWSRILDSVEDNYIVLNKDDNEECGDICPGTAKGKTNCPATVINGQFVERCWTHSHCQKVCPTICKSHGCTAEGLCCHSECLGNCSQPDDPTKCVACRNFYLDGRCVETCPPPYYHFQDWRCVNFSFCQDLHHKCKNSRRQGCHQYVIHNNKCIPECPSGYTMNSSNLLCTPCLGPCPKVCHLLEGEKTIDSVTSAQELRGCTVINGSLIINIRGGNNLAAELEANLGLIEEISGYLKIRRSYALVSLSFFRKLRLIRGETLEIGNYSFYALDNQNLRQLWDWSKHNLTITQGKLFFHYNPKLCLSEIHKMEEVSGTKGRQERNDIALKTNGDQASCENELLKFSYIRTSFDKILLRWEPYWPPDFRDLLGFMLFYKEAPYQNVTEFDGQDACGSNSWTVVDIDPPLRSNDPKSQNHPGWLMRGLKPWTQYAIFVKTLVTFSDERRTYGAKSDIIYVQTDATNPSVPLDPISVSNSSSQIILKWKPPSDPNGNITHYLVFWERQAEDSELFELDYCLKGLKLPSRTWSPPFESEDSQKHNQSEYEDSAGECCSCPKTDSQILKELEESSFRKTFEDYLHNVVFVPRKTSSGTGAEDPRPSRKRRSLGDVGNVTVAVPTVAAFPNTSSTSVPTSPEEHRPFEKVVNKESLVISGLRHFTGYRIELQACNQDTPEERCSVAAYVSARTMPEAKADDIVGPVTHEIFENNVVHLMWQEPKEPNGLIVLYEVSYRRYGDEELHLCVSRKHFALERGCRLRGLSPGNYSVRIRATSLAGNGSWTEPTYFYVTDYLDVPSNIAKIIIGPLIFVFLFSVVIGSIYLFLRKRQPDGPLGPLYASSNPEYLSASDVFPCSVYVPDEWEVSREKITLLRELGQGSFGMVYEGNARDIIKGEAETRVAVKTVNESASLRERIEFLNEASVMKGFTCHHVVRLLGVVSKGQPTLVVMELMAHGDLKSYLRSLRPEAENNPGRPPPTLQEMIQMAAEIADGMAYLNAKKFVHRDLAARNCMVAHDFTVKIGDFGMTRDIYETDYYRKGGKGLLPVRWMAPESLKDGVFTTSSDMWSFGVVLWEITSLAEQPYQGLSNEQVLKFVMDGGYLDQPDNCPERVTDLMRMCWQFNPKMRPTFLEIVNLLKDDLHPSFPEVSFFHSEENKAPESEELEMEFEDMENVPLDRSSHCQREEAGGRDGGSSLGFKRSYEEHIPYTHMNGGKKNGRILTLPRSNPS

[7] = biological target: PLK3 (human) (UniProt Q9H4B4); test: SelectScreen, TR FRET; conditions: compound 10.0 µM
Sequence of PLK3 (human) (Q9H4B4 whole entry, looked up): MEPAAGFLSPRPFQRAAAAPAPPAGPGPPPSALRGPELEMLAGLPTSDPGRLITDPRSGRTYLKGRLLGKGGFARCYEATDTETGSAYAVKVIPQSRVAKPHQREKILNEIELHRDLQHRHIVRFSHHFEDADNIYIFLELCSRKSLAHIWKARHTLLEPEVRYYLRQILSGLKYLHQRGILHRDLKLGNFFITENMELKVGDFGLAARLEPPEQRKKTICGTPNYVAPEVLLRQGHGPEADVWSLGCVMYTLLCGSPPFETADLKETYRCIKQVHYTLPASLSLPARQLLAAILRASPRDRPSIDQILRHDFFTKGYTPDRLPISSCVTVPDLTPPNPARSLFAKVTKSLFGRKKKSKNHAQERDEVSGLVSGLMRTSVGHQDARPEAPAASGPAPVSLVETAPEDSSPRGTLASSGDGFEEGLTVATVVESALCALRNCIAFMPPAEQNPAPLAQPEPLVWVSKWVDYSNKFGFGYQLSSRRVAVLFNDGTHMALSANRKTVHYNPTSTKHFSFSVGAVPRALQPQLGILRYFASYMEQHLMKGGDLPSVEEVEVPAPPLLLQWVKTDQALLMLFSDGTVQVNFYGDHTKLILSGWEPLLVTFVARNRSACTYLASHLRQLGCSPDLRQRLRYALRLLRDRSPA

[8] = biological target: CLK1 (human) (UniProt P49759); test: SelectScreen, TR FRET; conditions: compound 10.0 µM
Sequence of CLK1 (human) (P49759 whole entry, looked up): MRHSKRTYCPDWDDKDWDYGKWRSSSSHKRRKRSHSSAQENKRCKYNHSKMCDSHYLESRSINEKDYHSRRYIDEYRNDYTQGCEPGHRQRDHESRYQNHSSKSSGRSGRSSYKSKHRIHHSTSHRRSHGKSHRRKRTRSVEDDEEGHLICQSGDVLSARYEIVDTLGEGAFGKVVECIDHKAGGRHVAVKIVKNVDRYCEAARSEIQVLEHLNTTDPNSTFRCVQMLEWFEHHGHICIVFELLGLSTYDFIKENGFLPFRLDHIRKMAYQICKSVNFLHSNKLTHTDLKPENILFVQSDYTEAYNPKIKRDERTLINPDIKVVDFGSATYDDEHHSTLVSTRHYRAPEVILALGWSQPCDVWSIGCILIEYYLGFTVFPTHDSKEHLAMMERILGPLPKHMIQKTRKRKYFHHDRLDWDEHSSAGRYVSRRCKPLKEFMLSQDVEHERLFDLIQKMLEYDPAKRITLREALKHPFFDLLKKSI

[9] = biological target: CDK2 CCNA2 (human) (UniProt P24941+P20248); test: SelectScreen, TR FRET; conditions: compound 10.0 µM
Sequence of CDK2 CCNA2 (human) (P20248 whole entry, looked up, other chains not shown): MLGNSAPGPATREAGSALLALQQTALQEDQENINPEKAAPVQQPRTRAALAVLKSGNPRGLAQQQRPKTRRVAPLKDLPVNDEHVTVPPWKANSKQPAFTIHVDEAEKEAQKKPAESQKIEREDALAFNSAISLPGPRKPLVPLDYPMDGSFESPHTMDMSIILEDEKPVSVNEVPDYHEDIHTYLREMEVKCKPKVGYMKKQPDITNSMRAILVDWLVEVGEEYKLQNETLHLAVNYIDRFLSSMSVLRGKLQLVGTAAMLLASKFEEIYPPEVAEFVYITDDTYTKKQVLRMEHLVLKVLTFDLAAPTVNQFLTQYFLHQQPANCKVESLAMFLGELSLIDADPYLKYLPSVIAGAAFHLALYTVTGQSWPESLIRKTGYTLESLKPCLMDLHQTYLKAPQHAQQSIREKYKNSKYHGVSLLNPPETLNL

[10] = biological target: PIK3CA PIK3R1 (human) (UniProt P27986+P42336); test: SelectScreen, TR FRET; conditions: compound 10.0 µM
[11] = biological target: IRAK4 (human) (UniProt Q9NWZ3); test: SelectScreen, TR FRET; conditions: compound 10.0 µM
[12] = biological target: CAMK2A (human) (UniProt Q9UQM7); test: SelectScreen, TR FRET; conditions: compound 10.0 µM
[13] = biological target: CDK5 CDK5R1 p25 (human) (UniProt Q15078+Q00535); test: SelectScreen, TR FRET; conditions: compound 10.0 µM
Sequence of CDK5 CDK5R1 p25 (human) (Q00535 whole entry, looked up): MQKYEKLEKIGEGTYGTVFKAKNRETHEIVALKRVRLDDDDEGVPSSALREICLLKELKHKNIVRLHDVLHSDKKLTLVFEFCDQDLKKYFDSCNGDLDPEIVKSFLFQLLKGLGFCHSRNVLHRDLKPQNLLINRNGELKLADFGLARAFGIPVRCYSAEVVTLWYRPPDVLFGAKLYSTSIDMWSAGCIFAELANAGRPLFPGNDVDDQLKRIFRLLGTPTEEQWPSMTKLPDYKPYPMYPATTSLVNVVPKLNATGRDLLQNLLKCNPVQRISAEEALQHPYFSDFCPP
Sequence of CDK5 CDK5R1 p25 (human) (Q15078 whole entry, looked up): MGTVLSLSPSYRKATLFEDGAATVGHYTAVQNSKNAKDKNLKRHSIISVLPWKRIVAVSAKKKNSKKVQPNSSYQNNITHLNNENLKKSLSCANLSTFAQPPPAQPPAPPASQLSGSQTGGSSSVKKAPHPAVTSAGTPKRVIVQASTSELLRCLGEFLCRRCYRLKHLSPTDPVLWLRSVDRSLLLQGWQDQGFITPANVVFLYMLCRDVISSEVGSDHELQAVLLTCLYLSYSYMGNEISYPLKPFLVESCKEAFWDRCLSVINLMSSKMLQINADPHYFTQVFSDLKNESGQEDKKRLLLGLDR

[14] = biological target: PLK1 (human) (UniProt P53350); test: SelectScreen, TR FRET; conditions: compound 10.0 µM
Sequence of PLK1 (human) (P53350 whole entry, looked up): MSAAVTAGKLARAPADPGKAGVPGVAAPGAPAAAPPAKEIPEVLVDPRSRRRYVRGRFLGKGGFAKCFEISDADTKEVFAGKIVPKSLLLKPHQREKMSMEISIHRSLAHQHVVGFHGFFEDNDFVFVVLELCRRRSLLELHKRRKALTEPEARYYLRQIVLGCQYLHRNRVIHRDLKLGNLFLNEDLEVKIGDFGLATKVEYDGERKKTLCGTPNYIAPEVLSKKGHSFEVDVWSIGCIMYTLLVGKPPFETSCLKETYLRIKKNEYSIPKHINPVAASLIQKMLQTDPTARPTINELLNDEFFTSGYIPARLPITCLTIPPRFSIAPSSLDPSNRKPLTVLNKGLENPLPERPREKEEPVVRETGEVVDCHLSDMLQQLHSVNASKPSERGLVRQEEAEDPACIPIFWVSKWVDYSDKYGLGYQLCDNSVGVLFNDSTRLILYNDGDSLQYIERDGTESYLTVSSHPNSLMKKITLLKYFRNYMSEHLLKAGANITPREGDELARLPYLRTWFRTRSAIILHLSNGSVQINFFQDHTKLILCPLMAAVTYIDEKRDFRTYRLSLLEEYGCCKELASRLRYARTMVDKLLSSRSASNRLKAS

[15] = biological target: PRKACA (human) (UniProt P17612); test: SelectScreen, TR FRET; conditions: compound 10.0 µM
[16] = biological target: PLK2 (human) (UniProt Q9NYY3); test: SelectScreen, TR FRET; conditions: compound 10.0 µM
Sequence of PLK2 (human) (Q9NYY3 whole entry, looked up): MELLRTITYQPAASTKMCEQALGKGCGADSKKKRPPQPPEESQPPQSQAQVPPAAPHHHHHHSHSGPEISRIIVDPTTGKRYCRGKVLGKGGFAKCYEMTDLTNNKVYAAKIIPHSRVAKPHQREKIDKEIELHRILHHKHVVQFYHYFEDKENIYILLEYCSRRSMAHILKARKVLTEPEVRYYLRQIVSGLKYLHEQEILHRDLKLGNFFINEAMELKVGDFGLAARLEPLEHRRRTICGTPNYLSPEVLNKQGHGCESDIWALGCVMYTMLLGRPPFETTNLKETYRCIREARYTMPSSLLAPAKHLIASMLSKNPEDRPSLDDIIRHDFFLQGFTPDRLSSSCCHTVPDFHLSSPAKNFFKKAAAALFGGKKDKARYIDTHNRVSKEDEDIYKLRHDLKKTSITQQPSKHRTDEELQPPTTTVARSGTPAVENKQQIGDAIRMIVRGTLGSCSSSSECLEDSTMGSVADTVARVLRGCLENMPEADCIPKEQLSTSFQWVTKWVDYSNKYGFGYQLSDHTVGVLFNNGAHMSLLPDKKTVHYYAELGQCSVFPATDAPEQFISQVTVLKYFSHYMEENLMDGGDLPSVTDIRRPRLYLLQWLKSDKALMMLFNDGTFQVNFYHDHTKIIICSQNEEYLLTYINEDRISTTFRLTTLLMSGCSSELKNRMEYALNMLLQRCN

[17] = biological target: PAK4 (human) (UniProt O96013); test: SelectScreen, TR FRET; conditions: compound 10.0 µM
[18] = biological target: ROCK2 (human) (UniProt O75116); test: SelectScreen, TR FRET; conditions: compound 10.0 µM
[19] = biological target: RIPK2 (human) (UniProt O43353); test: SelectScreen, TR FRET; conditions: compound 10.0 µM
[20] = biological target: FLT3 (human) (UniProt P36888); test: SelectScreen, TR FRET; conditions: compound 10.0 µM
[21] = biological target: MAPK10 (human) (UniProt P53779); test: SelectScreen, TR FRET; conditions: compound 10.0 µM
[22] = biological target: SYK (human) (UniProt P43405); test: SelectScreen, TR FRET; conditions: compound 10.0 µM
[23] = biological target: ABL1 (human) (UniProt P00519); test: SelectScreen, TR FRET; conditions: compound 10.0 µM
[24] = biological target: JAK1 JH1 JH2 (human) (UniProt P23458); test: SelectScreen, TR FRET; conditions: compound 10.0 µM
[25] = biological target: DYRK1B (human) (UniProt Q9Y463); test: SelectScreen, TR FRET; conditions: compound 10.0 µM
[26] = biological target: PDGFRA (human) (UniProt P16234); test: SelectScreen, TR FRET; conditions: compound 10.0 µM
[27] = biological target: RET (human) (UniProt P07949); test: SelectScreen, TR FRET; conditions: compound 10.0 µM
[28] = biological target: CHEK1 (human) (UniProt O14757); test: SelectScreen, TR FRET; conditions: compound 10.0 µM
[29] = biological target: STK3 (human) (UniProt Q13188); test: SelectScreen, TR FRET; conditions: compound 10.0 µM
[30] = biological target: PTK2B (human) (UniProt Q14289); test: SelectScreen, TR FRET; conditions: compound 10.0 µM
[31] = biological target: CSF1R (human) (UniProt P07333); test: SelectScreen, TR FRET; conditions: compound 10.0 µM
[32] = biological target: MARK2 (human) (UniProt Q7KZI7); test: SelectScreen, TR FRET; conditions: compound 10.0 µM
[33] = biological target: STK16 (human) (UniProt O75716); test: SelectScreen, TR FRET; conditions: compound 10.0 µM
[34] = biological target: LRRK2 (human) (UniProt Q5S007); test: SelectScreen, TR FRET; conditions: compound 10.0 µM
[35] = biological target: LCK (human) (UniProt P06239); test: SelectScreen, TR FRET; conditions: compound 10.0 µM
[36] = biological target: AURKA (human) (UniProt O14965); test: SelectScreen, TR FRET; conditions: compound 10.0 µM
[37] = biological target: MAP3K7 TAB1 (human) (UniProt Q15750+O43318); test: SelectScreen, TR FRET; conditions: compound 10.0 µM
[38] = biological target: RAF1 (human) (UniProt P04049); test: SelectScreen, TR FRET; conditions: compound 10.0 µM
[39] = biological target: TTK (human) (UniProt P33981); test: SelectScreen, TR FRET; conditions: compound 10.0 µM
[40] = biological target: GSK3B (human) (UniProt P49841); test: SelectScreen, TR FRET; conditions: compound 10.0 µM
[41] = biological target: PDGFRA (human) (UniProt P16234); test: HTRF
[42] = biological target: CSF1R (human) (UniProt P07333); test: HTRF
[43] = biological target: LRRK2 (human) (UniProt Q5S007); test: HTRF
[44] = biological target: LRRK2 (human), Q5S007 [G2019S]; test: HTRF

CS(=O)(=O)c1ccc(-c2ccc3c(NC4CCC4)c(C(N)=O)nnc3c2)cc1
inhibition [1]: -1.63%
inhibition [2]: 3.89%
inhibition [3]: 2.96%
inhibition [4]: 4.88%
inhibition [5]: 7.35%
inhibition [6]: 7.17%
inhibition [7]: 9.8%
inhibition [8]: 13.7%
inhibition [9]: 2.69%
inhibition [10]: 1.77%
inhibition [11]: -6.26%
inhibition [12]: 10.5%
inhibition [13]: -0.613%
inhibition [14]: 13.7%
inhibition [15]: 0.0814%
inhibition [16]: 10.6%

CC(C)Nc1c(C(N)=O)nnc2cc(-c3ccc(N4CCOCC4)cc3)ccc12
inhibition [17]: 59.5%
inhibition [1]: -0.227%
inhibition [18]: 78%
inhibition [19]: 44.4%
inhibition [20]: 98.9%
inhibition [2]: 14.7%
inhibition [21]: 16.6%
inhibition [22]: 81.4%
inhibition [23]: 55.5%
inhibition [3]: -5.26%
inhibition [24]: 72.3%
inhibition [4]: 1.33%
inhibition [25]: 6.79%
inhibition [5]: 2.62%
inhibition [6]: -0.801%
inhibition [7]: -15.6%
inhibition [26]: 97.5%
inhibition [27]: 82.8%
inhibition [28]: 93.2%
inhibition [29]: 41.9%
inhibition [30]: 38.9%
inhibition [8]: 4.04%
inhibition [9]: 5.12%
inhibition [31]: 97.3%
inhibition [10]: 15.2%
inhibition [11]: 17.5%
inhibition [32]: 80.5%
inhibition [12]: 17.4%
inhibition [33]: 39.9%
inhibition [34]: 98.6%
inhibition [13]: 3.19%
inhibition [35]: 74.7%
inhibition [36]: 80.8%
inhibition [37]: 67.1%
inhibition [14]: 3.31%
inhibition [15]: -1.97%
inhibition [38]: 27%
inhibition [39]: 66.6%
inhibition [16]: 5.59%
inhibition [40]: 42.2%
IC50 [41]: 262 nM
IC50 [42]: 22 nM
IC50 [43]: 9 nM
IC50 [44]: 12 nM
